Results on three compounds are retold here after patent US20150196531A1, “Methods and Compositions For Treating Sleep-Related Breathing Disorders” (Sunovion Pharmaceuticals Inc., priority 2007, published 2015).

The term IC50 denotes the concentration at which inhibition is half-maximal.

Test [1] addresses T1, dopamine uptake, rat reuptake transporter (synaptosomes from male Wistar rat striatum) (Rattus norvegicus, UniProt P23977).
T1 construct: synaptosomes isolated in a 0.32 M sucrose buffer from a male Wistar rat striatum; from tissue; host or cells: male Wistar rat striatum synaptosomes
Put plainly: Dopamine functional uptake assay for rat reuptake transporter (synaptosomes). The following applies: for IC50: rat synaptosomes, [3H]-dopamine uptake, read-out: Inhibition of monoamine uptake, Rat DA, IC50. The class given is biochemical.
Description: (§1) The concentrations of radioligand employed in the assays were at or below the KM for the monoamine substrates with their cognate transporters. Compounds were tested at 5 to 10 different concentrations in duplicate in order to obtain full inhibition curves.
Quantification of dopamine uptake was performed using synaptosomes isolated in a 0.32 M sucrose buffer from a male Wistar rat striatum. The uptake of radiolabelled dopamine by synaptosomes (20 μg of proteins/point) was allowed by incubating them for 15 minutes at 37° C. in the presence of test compounds and [^3H]-dopamine (0.1 μCi/point). The experiment was performed in a deep well.
Synaptosomes and [^3H]-dopamine were prepared in a Krebs buffer pH 7.4 containing 25 mM NaHCO3, 11 mM glucose and 50 μM ascorbic acid. This incubation buffer was oxygenated for 5 minutes before incubation. Basal control was incubated for 15 minutes at 4° C. in order to avoid any uptake. Following this incubation, the uptake was stopped by filtration through a unifilter 96-wells GFB Packard plate washed with Krebs buffer containing 25 mM NaHCO3in order to eliminate free [^3H]-dopamine. The radioactivity associated to the synaptosomes retained onto the unifilter corresponding to the uptake was then measured with a microplate scintillation counter (Topcount, Packard) using a scintillation fluid.

In test [2] the target is norepinephrine uptake, rat reuptake transporter (synaptosomes from male Wistar rat hypothalamus) (Rattus norvegicus, UniProt Q63380). Put plainly: Norepinephrine functional uptake assay for rat reuptake transporter (synaptosomes). The following applies: [3H]-norepinephrine uptake, read-out: Inhibition of monoamine uptake, Rat NE, IC50. Format: biochemical.
Description: as §1
Quantification of norepinephrine uptake was performed using synaptosomes isolated in a 0.32 M sucrose buffer from a male Wistar rat hypothalamus. The uptake of radiolabelled norepinephrine by synaptosomes (100 μg of proteins/point) was allowed by incubating them for 20 minutes at 37° C. in presence of test compounds and [^3H]-norepinephrine (0.1 μCi/point). The experiment was performed in a deep well.
Synaptosomes and [^3H]-norepinephrine were prepared in a Krebs buffer pH 7.4 containing 25 mM NaHCO3, 11 mM glucose and 50 μM ascorbic acid. This incubation buffer was oxygenated for 5 minutes before incubation. Basal control was incubated for 20 minutes at 4° C. in order to avoid any uptake. Following this incubation, the uptake was stopped by filtration through a unifilter 96-wells GFB. Packard plate washed with Krebs buffer containing 25 mM NaHCO3 in order to eliminate the free [^3H]-norepinephrine. The radioactivity associated to the synaptosomes retained onto the unifilter corresponding to the uptake was then measured with a microplate scintillation counter (Topcount, Packard) using a scintillation fluid.
Test [3] addresses recombinant human dopamine transporter expressed in CHO-K1 cells (Homo sapiens, UniProt Q01959).
Description: as §1
Test compound and/or vehicle was preincubated with cells (4×10^5/ml) in modified Tris-HEPES buffer pH 7.1 for 20 minutes at 25° C. and 50 nM [^3H]Dopamine was then added for an additional 10 minute incubation period. A lysate was obtained from solubilized cells and the amount of tritium in the lysate was measured using a liquid scintillation counter to determine [^3H]Dopamine uptake. Reduction of [^3H]Dopamine uptake by 50 percent or more (≧50%) relative to 10 μM nomifensine indicates significant inhibitory activity.
The target of test [4] is 5-HT uptake, rat reuptake transporter (synaptosomes from male Wistar rat cortex) (Rattus norvegicus, UniProt P31652). The following applies: at a 10 μM concentration.
5-HT uptake, rat reuptake transporter (synaptosomes from male Wistar rat cortex), sequence (P31652 whole entry): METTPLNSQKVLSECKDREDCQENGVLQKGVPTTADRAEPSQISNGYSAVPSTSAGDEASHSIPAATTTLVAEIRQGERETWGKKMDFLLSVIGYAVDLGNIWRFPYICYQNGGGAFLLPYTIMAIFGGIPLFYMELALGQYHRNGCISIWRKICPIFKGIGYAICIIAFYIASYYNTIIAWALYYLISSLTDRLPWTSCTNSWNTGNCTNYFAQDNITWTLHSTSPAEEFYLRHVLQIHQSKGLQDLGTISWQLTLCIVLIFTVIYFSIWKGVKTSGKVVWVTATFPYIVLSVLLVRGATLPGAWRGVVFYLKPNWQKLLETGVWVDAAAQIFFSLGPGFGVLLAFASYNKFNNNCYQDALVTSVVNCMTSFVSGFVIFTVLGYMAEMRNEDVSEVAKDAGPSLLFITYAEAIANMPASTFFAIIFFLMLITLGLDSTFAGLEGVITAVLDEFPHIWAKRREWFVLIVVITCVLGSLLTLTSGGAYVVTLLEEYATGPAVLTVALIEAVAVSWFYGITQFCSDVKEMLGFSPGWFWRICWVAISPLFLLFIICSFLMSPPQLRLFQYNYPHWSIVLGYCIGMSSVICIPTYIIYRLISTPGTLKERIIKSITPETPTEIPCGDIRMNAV
Description: as §1
Quantification of 5HT uptake was performed using synaptosomes isolated in a 0.32M sucrose buffer from a male Wistar rat cortex. The uptake of radiolabelled 5-HT by synaptosomes (100 μg of proteins/point) was allowed by incubating them in a well for 15 min at 37° C. in presence of test compounds and [^3H]5-hydroxytryptamine (0.1 μCi/point).
Synaptosomes and [^3H]5-hydroxytryptamine were prepared in a Krebs buffer pH 7.4 containing 25 mM NaHCO3, 11 mM mM glucose and 50 μM ascorbic acid. This incubation buffer was oxygenated during 5 minutes before incubation. Basal control was incubated for 15 minutes at 4° C. in order to avoid any uptake. […] The radioactivity associated to the synaptosomes retained on the unifilter corresponding to the uptake was then measured with a microplate scintillation counter (Topcount, Packard) using a scintillation fluid. Nonspecific binding was measured in the presence of an excess of cold, unlabeled ligand. […]

norepinephrine uptake, rat reuptake transporter (synaptosomes from male Wistar rat hypothalamus), sequence (Q63380 1-617): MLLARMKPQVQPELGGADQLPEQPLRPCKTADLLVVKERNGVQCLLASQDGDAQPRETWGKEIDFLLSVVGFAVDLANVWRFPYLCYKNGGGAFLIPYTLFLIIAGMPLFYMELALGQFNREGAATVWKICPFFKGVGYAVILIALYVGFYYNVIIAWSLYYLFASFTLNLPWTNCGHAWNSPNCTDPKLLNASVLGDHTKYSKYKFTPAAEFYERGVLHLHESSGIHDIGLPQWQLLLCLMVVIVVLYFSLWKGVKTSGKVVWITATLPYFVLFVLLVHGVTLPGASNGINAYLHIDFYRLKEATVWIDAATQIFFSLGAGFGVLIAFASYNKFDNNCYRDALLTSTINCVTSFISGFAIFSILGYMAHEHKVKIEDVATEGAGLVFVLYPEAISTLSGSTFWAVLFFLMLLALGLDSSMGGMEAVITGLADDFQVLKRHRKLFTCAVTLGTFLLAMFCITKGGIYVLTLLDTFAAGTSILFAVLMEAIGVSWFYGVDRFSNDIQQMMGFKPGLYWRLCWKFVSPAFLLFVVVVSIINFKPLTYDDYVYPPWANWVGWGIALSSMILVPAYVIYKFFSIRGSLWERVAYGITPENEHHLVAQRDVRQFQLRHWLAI
T1 sequence (P23977 whole entry): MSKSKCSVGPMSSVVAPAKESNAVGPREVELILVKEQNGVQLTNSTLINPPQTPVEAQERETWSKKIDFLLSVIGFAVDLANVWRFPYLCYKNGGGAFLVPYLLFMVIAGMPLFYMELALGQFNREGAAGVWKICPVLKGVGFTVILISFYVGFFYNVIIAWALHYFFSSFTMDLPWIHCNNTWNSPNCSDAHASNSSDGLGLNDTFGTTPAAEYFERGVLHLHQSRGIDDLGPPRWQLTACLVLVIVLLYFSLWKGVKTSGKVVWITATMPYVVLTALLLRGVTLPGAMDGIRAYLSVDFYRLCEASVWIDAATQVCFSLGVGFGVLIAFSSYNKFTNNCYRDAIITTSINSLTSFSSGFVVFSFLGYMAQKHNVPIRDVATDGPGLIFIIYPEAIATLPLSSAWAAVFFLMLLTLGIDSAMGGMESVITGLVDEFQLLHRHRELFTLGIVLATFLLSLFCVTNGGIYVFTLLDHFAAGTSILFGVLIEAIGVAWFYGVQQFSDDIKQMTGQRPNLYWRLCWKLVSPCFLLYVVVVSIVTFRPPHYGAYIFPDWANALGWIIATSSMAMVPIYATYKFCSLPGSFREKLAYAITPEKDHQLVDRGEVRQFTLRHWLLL
recombinant human dopamine transporter expressed in CHO-K1 cells, sequence (Q01959 whole entry): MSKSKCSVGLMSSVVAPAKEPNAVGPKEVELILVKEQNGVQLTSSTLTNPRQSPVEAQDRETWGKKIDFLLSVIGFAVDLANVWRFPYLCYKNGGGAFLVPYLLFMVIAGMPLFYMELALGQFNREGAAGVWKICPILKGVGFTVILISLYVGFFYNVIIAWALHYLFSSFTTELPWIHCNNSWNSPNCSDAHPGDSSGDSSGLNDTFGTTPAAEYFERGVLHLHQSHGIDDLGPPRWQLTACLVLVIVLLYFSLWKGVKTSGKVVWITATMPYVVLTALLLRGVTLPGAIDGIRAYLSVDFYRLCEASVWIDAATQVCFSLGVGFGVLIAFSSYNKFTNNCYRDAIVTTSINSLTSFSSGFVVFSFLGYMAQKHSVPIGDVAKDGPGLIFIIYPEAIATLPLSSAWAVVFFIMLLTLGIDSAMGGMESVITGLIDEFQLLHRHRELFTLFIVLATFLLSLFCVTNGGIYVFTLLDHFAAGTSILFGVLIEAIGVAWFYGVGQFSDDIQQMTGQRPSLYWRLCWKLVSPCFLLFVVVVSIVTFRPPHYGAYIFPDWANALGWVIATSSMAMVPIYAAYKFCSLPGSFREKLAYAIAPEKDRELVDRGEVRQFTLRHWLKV

Turning to `CN(C)CC(c1ccc(O)cc1)C1(O)CCCCC1` (racemic) [Racemic O-desmethylvenlafaxine, O-desmethylvenlafaxine], the IC50 turned out to be 7500 nM in test [1] and 1500 nM in test [2]. In addition, the “Inhibition of functional reuptake, Human DA (IC50 not given)” value in test [3] is reported as “— (key: — indicates less than 50% inhibition of functional reuptake at a 10 μM concentration.)”.
For `CN(C)CC(c1ccc(O)cc1)C1(O)CCCCC1` (single isomer, unassigned; (+)) [(+)-O-desmethylvenlafaxine], the “Inhibition of functional reuptake, Rat DA (IC50 not given)” value in test [1] (at a 10 μM concentration) is “— (— indicates less than 50% inhibition of functional reuptake at a 10 μM concentration.)”. For the same compound, in test [2], the IC50 stood at 1700 nM. In test [3], the “Inhibition of functional reuptake, Human DA (IC50 not given)” value is reported as “— (key: — indicates less than 50% inhibition of functional reuptake at a 10 μM concentration.)”. Also, the “Inhibition of functional reuptake, Rat 5-HT (IC50 not given)” value in test [4] was “— (— indicates less than 50% inhibition of functional reuptake at a 10 μM concentration.)”.
For the compound `CN(C)CC(c1ccc(O)cc1)C1(O)CCCCC1` (single isomer, unassigned; (-)) [(−)-O-desmethylvenlafaxine], the 50% inhibitory concentration (IC50) in test [1] was 5700 nM; in test [2], 430 nM.
